In ChEMBL document CHEMBL1201862, “PubChem BioAssay data set” (2004):
Calls of active or inactive are those of the source.

Columns and labels:
Bcl-2-related protein A1 [1] = molecular target: T1, Bcl-2-related protein A1 (Mus musculus, UniProt Q07440); experiment: Bfl-1 binding inhibitors, SAR follow-up, biochemical, fluorescence polarization (AID 1070)
T1 sequence (Q07440 whole entry): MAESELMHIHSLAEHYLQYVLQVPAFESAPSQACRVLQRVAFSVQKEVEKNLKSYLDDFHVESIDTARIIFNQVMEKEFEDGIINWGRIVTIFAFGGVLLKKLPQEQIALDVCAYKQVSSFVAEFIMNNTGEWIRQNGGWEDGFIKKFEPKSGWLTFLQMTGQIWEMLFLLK

Bcl-2-related protein A1 [2] = molecular target: T1, Bcl-2-related protein A1; experiment: Bfl-1 inhibitors blocking BH3 peptide binding, confirmation, biochemical, TR-FRET, mouse Bfl-1 (AID 621);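 note: TR-FRET binding of GST-Bfl-1 to FITC-labelled Bid peptide via terbium antibody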
Protein skinhead-1 = molecular target: T2, Protein skinhead-1 (Caenorhabditis elegans, UniProt P34707); assay type: functional
T2 sequence (P34707 whole entry): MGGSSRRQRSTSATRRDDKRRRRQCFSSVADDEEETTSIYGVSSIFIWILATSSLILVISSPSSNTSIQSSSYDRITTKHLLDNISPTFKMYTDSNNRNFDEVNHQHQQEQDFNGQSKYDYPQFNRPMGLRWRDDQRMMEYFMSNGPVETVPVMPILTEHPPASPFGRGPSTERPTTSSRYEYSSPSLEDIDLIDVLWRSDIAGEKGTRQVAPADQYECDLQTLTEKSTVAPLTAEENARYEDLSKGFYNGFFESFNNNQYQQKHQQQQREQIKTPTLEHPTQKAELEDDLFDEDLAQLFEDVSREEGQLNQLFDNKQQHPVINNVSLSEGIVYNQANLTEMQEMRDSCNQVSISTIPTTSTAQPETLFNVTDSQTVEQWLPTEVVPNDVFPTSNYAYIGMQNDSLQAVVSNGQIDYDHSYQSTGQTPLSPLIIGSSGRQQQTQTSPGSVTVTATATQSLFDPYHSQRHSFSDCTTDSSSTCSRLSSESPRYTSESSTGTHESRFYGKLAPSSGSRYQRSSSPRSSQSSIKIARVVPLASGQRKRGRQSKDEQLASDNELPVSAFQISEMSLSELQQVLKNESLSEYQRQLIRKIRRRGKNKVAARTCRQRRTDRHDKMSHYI

[3] = molecular target: T3, Oxysterols receptor LXR-beta (Homo sapiens, UniProt P55055); assay type: functional, cell-based;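 note: agonist activity at LXR measured by a cell-based luminescence readout across a dose range, run as a counterscreen for daf-12 agonists; HEK293 cells with Gal4-LXR fusion and GAL4-driven luciferase reporter; potency for activation of Gal4-LXR reporter so compounds are agonists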
T3 sequence (P55055 whole entry): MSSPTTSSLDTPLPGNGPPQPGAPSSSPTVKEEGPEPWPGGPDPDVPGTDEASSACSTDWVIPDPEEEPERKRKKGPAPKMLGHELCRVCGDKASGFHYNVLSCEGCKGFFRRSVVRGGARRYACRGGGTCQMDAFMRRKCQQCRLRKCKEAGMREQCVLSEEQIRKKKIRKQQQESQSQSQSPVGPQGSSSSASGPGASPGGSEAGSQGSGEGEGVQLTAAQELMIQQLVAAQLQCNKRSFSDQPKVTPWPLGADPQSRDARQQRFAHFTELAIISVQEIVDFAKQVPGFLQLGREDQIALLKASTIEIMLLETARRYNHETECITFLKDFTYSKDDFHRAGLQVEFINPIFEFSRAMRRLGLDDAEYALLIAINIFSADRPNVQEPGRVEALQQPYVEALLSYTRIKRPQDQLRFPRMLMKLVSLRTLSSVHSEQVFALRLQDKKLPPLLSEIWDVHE

[4] = molecular target: Complement C1s subcomponent (Homo sapiens, UniProt P09871); experiment: Complement C1s ELISA. [Related pubchem assays: 538, 787 ]; assay type: functional
Nonstructural protein 1 = Nonstructural protein 1 (Influenza A virus, UniProt Q194T2); assay type: functional, Influenza A virus (A/California/07/2009(H1N1))
Beta-galactosidase = Beta-galactosidase (Escherichia coli, UniProt Q8VNN2); assay type: functional
cells [5] = assay type: functional, cell-based
[6] = molecular target: E3 ubiquitin-protein ligase Mdm2 (Homo sapiens, UniProt Q00987); experiment: enhancers of MDM2-luciferase reporter signal, concentration-effect titration, project on inhibitors of MDM2 ubiquitin ligase, cellular assay, luminescent readout, 384-well plate format (AID 1394); assay type: functional;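 note: MDM2 E3 inhibitors raise luminescence so EC50 is for signal enhancement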
[7] = Luminescence Cell-Based Dose Retest to Confirm Inhibitors of Cancer Stem Cells. [Related pubchem assays (depositor defined):AID2717, AID2721]; assay type: functional; details: Homo sapiens
cells [8] = assay type: functional, cell-based; remark: listed apart in the source
[9] = molecular target: T4, Kappa-type opioid receptor (Homo sapiens, UniProt P41145); assay type: functional
[10] = molecular target: T4, Kappa-type opioid receptor; assay type: functional; remark: listed apart in the source
[11] = M. tuberculosis growth inhibition, HTS (AID 449762); assay type: functional
[12] = Luminescent dose response cell-based high throughput screening assay for inhibitors of the Janus kinase 2 mutant JAK2V617F. [Related pubchem assays: 1446 (Primary screen.), 1521 (Confirmation assay.), 1486 (Counter screen.)]; assay type: functional
[13] = molecular target: Voltage-gated inwardly rectifying potassium channel KCNH2 (Homo sapiens, UniProt Q12809); experiment: hERG protection from proarrhythmic block, potency, dose response, cell-based, thallium flux (AID 2121); assay type: ADME
14-3-3 protein gamma = 14-3-3 protein gamma (Homo sapiens, UniProt P61981); experiment: modulators of 14-3-3 gamma client binding – dose response (AID 711); assay type: functional
[14] = molecular target: Peroxisome proliferator-activated receptor gamma/Nuclear receptor corepressor 2 (Homo sapiens, UniProt P37231+Q9Y618); experiment: Counterscreen for NR2E3 inverse agonists: TR-FRET-based biochemical high throughput dose response assay to identify inverse agonists of the interaction between peroxisome proliferator-activated receptor gamma (PPARg) and nuclear receptor co-repressor 2 (NCOR2).; assay type: functional
[15] = molecular target: Photoreceptor-specific nuclear receptor (Homo sapiens, UniProt Q9Y5X4); experiment: NR2E3 inverse agonists, dose response, biochemical, TR-FRET (AID 463256); assay type: functional
[16] = molecular target: RNA-editing ligase 1, mitochondrial (Trypanosoma brucei brucei, UniProt P86926); experiment: TbREL1 ligase inhibitors, dose response, biochemical, fluorescence, Trypanosoma brucei (AID 1117295); assay type: functional
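Throughout, for AC50: cells exposed to compound for roughly 70 hours or longer before luminescence read.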

T4 sequence (P41145 whole entry): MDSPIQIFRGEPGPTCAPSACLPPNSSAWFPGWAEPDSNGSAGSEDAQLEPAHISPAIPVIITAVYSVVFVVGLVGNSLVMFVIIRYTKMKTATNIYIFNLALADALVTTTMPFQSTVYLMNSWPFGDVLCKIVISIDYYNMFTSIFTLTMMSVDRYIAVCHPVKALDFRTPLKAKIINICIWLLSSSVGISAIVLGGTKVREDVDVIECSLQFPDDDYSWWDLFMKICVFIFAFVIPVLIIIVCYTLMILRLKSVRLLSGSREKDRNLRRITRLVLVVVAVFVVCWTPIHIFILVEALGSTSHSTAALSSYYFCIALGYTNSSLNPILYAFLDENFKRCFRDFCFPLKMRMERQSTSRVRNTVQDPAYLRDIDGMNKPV
Beta-galactosidase, sequence (Q8VNN2 whole entry): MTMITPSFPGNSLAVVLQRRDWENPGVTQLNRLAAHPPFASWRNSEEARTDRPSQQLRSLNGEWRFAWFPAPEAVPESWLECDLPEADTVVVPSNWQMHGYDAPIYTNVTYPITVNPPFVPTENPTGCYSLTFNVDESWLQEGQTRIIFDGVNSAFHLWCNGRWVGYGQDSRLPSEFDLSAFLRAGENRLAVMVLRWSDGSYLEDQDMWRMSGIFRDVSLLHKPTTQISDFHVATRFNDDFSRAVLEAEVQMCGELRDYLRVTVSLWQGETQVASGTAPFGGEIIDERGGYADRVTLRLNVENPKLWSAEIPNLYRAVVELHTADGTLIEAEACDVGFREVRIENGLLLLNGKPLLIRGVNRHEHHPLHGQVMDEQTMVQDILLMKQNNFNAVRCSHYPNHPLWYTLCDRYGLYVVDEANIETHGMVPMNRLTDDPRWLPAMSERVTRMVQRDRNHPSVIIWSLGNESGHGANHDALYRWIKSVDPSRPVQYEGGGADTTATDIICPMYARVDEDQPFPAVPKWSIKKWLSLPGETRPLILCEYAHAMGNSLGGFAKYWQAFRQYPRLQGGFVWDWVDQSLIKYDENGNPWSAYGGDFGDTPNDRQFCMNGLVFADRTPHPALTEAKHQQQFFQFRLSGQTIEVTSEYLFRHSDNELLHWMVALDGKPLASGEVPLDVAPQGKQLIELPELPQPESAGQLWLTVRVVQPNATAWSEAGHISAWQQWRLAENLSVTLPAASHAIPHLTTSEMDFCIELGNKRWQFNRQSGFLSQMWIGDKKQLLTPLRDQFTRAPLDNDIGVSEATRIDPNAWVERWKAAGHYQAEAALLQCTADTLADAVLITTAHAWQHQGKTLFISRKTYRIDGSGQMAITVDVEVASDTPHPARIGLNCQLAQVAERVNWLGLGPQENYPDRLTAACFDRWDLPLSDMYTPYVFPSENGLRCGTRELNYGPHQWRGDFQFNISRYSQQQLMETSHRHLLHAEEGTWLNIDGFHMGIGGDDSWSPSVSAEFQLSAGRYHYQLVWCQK
Complement C1s subcomponent, sequence (P09871 16-437 limits assumed): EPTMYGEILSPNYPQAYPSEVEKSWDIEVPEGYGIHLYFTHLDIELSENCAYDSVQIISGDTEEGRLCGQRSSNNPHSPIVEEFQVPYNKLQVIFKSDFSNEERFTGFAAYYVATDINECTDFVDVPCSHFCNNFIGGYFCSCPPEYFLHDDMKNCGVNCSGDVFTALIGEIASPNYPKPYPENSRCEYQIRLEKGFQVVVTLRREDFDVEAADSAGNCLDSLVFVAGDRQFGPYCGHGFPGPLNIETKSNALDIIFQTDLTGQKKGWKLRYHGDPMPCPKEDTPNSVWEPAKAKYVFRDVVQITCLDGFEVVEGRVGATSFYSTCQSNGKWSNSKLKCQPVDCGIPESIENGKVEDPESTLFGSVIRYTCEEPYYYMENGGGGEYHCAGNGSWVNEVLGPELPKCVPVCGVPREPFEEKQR
Complement C1s subcomponent, sequence (P09871 438-688 limits assumed): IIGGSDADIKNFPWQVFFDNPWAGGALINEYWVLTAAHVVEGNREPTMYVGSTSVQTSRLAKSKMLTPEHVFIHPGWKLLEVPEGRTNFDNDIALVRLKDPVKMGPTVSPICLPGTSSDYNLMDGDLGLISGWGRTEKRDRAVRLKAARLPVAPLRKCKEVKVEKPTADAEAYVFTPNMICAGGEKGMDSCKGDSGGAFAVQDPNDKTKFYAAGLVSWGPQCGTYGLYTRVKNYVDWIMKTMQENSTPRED
RNA-editing ligase 1, mitochondrial, sequence (P86926 whole entry): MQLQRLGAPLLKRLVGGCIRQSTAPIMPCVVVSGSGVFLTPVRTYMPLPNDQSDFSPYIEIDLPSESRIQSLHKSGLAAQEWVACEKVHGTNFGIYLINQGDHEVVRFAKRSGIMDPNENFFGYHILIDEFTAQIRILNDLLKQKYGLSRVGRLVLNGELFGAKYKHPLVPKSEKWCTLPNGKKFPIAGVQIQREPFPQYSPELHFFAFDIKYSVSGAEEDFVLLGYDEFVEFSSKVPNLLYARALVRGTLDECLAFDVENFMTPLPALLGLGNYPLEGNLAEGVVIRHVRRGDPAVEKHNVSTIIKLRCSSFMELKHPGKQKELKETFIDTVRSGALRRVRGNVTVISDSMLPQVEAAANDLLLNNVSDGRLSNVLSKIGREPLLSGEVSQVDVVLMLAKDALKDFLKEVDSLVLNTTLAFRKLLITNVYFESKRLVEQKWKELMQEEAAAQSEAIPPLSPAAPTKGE
E3 ubiquitin-protein ligase Mdm2, sequence (Q00987 whole entry): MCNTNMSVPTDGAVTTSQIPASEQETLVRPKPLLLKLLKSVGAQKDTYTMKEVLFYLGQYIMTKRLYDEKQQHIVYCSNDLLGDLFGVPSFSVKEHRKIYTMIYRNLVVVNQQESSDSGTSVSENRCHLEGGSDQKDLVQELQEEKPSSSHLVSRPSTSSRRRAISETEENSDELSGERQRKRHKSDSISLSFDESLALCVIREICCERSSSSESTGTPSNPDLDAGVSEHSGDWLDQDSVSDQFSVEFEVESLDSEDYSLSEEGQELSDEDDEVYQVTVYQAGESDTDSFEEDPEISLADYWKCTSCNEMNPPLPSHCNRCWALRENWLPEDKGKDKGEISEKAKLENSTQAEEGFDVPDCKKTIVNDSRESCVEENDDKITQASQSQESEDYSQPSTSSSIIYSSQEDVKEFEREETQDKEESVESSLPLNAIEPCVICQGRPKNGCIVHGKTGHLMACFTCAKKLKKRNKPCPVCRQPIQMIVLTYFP
Voltage-gated inwardly rectifying potassium channel KCNH2, sequence (Q12809 whole entry): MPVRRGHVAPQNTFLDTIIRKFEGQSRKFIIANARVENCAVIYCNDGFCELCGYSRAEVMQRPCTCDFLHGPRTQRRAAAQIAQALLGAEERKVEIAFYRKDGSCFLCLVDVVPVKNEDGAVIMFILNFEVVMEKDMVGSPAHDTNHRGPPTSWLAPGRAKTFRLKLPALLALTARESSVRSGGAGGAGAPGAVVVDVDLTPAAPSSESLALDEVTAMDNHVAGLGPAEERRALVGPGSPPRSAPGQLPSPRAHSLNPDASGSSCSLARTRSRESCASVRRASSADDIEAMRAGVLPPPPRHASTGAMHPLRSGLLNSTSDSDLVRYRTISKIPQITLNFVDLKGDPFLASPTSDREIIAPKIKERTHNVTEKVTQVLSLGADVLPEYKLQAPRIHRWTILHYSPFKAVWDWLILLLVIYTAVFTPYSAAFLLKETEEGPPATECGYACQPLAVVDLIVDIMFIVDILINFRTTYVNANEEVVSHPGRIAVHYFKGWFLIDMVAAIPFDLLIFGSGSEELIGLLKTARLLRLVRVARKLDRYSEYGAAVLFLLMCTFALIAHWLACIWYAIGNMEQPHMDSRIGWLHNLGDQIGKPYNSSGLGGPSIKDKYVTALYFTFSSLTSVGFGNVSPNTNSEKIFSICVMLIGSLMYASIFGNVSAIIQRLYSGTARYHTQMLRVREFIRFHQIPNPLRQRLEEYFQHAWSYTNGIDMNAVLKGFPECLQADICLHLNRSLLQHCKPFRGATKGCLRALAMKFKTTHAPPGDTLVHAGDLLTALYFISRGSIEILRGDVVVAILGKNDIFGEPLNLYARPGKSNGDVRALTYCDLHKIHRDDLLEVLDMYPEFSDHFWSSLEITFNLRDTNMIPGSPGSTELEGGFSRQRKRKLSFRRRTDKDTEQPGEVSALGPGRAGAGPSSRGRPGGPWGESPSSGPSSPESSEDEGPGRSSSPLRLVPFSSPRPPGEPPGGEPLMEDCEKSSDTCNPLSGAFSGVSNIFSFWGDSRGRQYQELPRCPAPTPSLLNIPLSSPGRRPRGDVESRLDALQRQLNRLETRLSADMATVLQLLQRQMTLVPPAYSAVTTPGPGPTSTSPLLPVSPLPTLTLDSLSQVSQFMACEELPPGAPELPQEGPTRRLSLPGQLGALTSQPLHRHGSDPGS
14-3-3 protein gamma, sequence (P61981 whole entry): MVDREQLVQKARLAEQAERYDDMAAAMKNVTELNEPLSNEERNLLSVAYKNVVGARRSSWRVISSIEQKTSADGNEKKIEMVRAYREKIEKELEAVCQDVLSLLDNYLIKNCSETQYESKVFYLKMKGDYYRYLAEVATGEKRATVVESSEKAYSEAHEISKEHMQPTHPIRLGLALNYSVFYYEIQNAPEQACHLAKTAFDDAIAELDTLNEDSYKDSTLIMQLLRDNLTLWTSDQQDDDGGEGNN
Nonstructural protein 1, sequence (Q194T2 whole entry): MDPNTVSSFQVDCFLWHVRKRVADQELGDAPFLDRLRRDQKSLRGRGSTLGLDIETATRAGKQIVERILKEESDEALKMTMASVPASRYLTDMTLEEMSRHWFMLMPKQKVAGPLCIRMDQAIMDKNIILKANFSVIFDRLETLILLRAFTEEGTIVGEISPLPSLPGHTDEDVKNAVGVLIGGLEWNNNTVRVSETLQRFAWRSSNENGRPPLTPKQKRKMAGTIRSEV

## Fc1ccc(-n2nnc(-c3cccnc3Cl)n2)cc1
Bcl-2-related protein A1 [1]
  IC50: > 100 µM (not active)
Bcl-2-related protein A1 [2]
  IC50: > 100 µM (not active)
Protein skinhead-1
  IC50: 21 µM (active)
[3]
  EC50: > 67.5 µM (inactive)

## O=c1c(-c2ccco2)[n+]([O-])c2ccccc2n1OCc1ccccn1
[4]
  IC50: > 50 µM (not active)

## O=C(CSC1=NNC(c2ccccn2)S1)Nc1ccc(C(F)(F)F)cc1 (stereo not given)
Nonstructural protein 1
  IC50: 7.8 µM (active)
Beta-galactosidase
  EC50: > 31.5 µM (inactive)
Cells [5]
  EC50: 15.6 µM (active)
[6]
  EC50: 43.2 µM (not active)
[7]
  AC50: 3.51 µM (active)
Cells [8]
  EC50: > 350 µM (not active)
[9]
  IC50: > 31.5 µM (inactive)
[10]
  IC50: > 32 µM

## CC1(c2ccc(Cl)c(Cl)c2)N=C(S)N2C1N=C(S)N2c1ccccc1 (stereo not given)
[11]
  IC50: > 100 µM (active)

## O=S(=O)(c1cnc(Cl)c(Cl)c1)N1CCc2ccccc21
[12]
  IC50: 3.96 µM (active)

## C=CCN(CC=C)C(=S)NC(=O)/C=C/c1ccc(OC)cc1
[13]
  EC50: 3.01 µM (active)

## CNC(=O)C(Sc1ccccc1)c1ccccc1 (stereo not given)
14-3-3 protein gamma
  IC50: > 50 µM (not active)

## O=C(Nc1nccs1)c1cc(-c2ccccn2)nc2c(Cl)cccc12
[14]
  IC50: 2.89 µM (active)
[15]
  IC50: 3.87 µM (active)

## Clc1ccc(CN=C(Nc2ccccc2)NC2CCCCC2)cc1
[16]
  IC50: > 96.6 µM (inactive)
